# Measurements taken from US8541476B2, “Compounds for treatment of malignant tumors” (The Trustees of the University of Pennsylvania, priority 2007, dated 2013).
# “Also recorded” adds a separate entry of the source.
# How the values were obtained:
# [1] = tested on: Nontransformed human astrocytes (NHA); experiment: Modified MTS survival assay on normal human astrocytes after IR; format: cell-based; details: 5 μM, 8 hours or 12 hours pretreatment, versus DMSO
# Protocol: (§1) Clonogenic survival assays were performed as described by Koumenis, et al., 2002, (Mol. Cell Biol. 22:7405-16), which reference is incorporated herein in its entirety. U251, HT-29, or A549 cells were plated at different densities in triplicate, treated with NS-123 or DMSO (alone) and irradiated 4, 8, or 12 hours later with a range of doses using ^137Cs γ-rays at a dose rate of ˜4 Gy/minute (min). One hour after irradiation, the medium was replaced with fresh medium without NS-123 or DMSO. The cells were fixed 7-14 days after IR and stained with crystal violet. Colonies greater than 50 cells were then counted and normalized against the non-irradiated controls for each treatment. […] NHA cells were plated in 24-well plates in quadruplicate at equal density, treated with equal volumes of NS-123 or DMSO (alone) and irradiated as described above. One hour after irradiation, the medium was replaced with fresh ABM. Five days later, the MTS assay was used to evaluate cell survival as above.
# The objective of any combination of therapeutic agents is to achieve an improved therapeutic result, which is a function both of tumor response and of normal tissue damage. No improvement in the therapeutic result of IR is gained utilizing a drug that increases the sensitivity of both tumor and normal cells to the same extent. […]
# [2] = tested on: dsDNA break repair in U251 cells; experiment: DSB measurement by PFGE and number average length analysis; format: cell-based, human; details: U251, 30 μM 4 hours, 4 Gy
# Protocol: Cells were treated with 30 μM NS-123 or DMSO alone. Four hours later, the cells were either sham-irradiated, or irradiated with 4 Gy of ^137Cs γ-rays (Radiation Facility, Brody School of Medicine, ECU) at the dose rate of 0.57 Gy/min and placed immediately at 37° C. in fresh medium without NS-123 and harvested at different repair times up to 24 hours. No significant changes in the percentage of dead cells were detected by trypan blue exclusion as a result of irradiation. […] A DNA dispersion curve relating DNA length to electrophoretic mobility, based on all length standards was determined from an analytical mobility function as previously described using number average length analysis (NALA) (Seo, et al., 2005, Clin. Cancer Res. 11:7499-507).
# As a first step in understanding the mechanism of the radiosensitizing activity of NS-123, the processing of DSBs in U251 cells treated with 30 μM NS-123 or DMSO (control) was measured using an adaptation of PFGE. […] Therefore, a 4 hour, 30 μM NS-123 treatment for experiments analyzing the effects of NS-123 on DSB repair and immunoblotting was used (see below) which require a significant quantity of cells. […]
# [3] = tested on: A549 non-small cell lung cancer cells; experiment: Clonogenic survival assay, A549 cells; format: cell-based, human; details: A549, 5 μM for 12 hours prior to IR
# Protocol: as §1
# To exclude the possibility that the radiosensitizing effect of NS-123 was specific to a single cell line, the radiosensitizing effect of NS-123 was tested on additional cell lines of different tissue origin. Clonogenic survival assays were performed. […]
smiles,measurement,setting,value
"CCC(=O)c1ccc(Br)c([N+](=O)[O-])c1 [NS-123, 4′-bromo-3′-nitropropiophenone]",radiosensitization of normal human glial cells,[1],no significant increase in radiosensitization; also recorded: does not radiosensitize
same,initial number of dsDNA breaks,[2],88.5±5.3 DSBs/Gbp
same,residual DSB damage compared to initial levels,[2]; 24 hours repair,~25%
same,DER at 0.1 survival,[3],1.4
